According to patent US12282021B2, “Stratification of acute myeloid leukaemia patients for sensitivity to kinase pathway inhibitor therapy” (KINOMICA LIMITED, priority 2017, dated 2025):

Test system: AML primary cells
Assay: Viability assay: ex-vivo drug testing of AML primary cells with kinase inhibitors (Guava ViaCount, 72h)
Assay type: cell-based, human
Conditions: for AML cases whose viability was reduced by >50% relative to DMSO control / number of AML cases whose viability was reduced by >50% relative to DMSO control / sensitivity of M4-Like and CDs+ cases versus M1-Like and CDs− cases (cell viability): 72h; for AML cases whose viability was reduced by >50% relative to DMSO control / number of AML cases whose viability was reduced by >50% relative to DMSO control: ex vivo; for sensitivity of M4-Like and CDs+ cases versus M1-Like and CDs− cases (cell viability): 1 μM PAKi, 10 μM FLT3/PKCi (FIG. 5A-B)
Description: The study was performed in 36 randomly selected primary samples of mononuclear cells extracted from the peripheral blood of AML patients at diagnosis. Experiments were performed as described below to determine the in vitro viability of the cells in response to treatment with inhibitors of the kinases FLT3/PKC (midostaurin, FLT3/PKCi), PAK (PF-3758309 PAKi), CK2 (silmitasertib CK2i) and MEK (trametinib, MEKi) The P38 inhibitor (P38i) TAK-715 was included as a negative control. Cells obtained from of 36 AML patients with well annotated clinical data were treated with these compounds for 72h.
The study was performed in 36 primary samples of mononuclear cells extracted from the peripheral blood of AML patients at diagnosis. Samples were randomly selected from the BCI tissue bank collection. Initially, 45 samples were included in the study but nine were later excluded because these were not viable in the ex-vivo experiments. Material availability allowed proteomics and mass cytometry analysis of 30 samples and DNA sequencing of 27 samples. Ex-vivo drug testing was performed in quadruplicate sampling replicates and viability values averaged and expressed relative to vehicle control.
Ex-vivo drug testing of AML primary cells was as previously described in Casado P, Rodriguez-Prados J C, Cosulich S C, et al. Kinase-substrate enrichment analysis provides insights into the heterogeneity of signaling pathway activation in leukemia cells. Sci Signal. 2013; 6(268):rs6. Briefly, cells were re-suspended in MS-5 conditioned IMDM medium, seeded in 96 well plates and treated with vehicle or 1 to 10000 nM of the indicated inhibitors for 72h. Cells were stained with Guava ViaCount reagent and cell number and viability was measured. Flow cytometry data were analyzed using CytoSoft (v2.5.7).
Mass cytometry was used to simultaneously measure the surface expression of 17 differentiation markers (CD3, CD7, CD11b, CD14, CD15, CD16, CD19, CD33, CD34, CD38, CD44, CD45, CD64, CD117, CD123, CD184, HLA-DR) in mononuclear cells extracted from the peripheral blood of 30 AML patients. Label free quantitative phosphoproteomics based on TiO2 phosphoenrichment was used to quantify>5,000 phosphorylation sites in the same AML primary samples and KSEA technology was applied to infer kinase activity from the phosphoproteomics data. Gene ontology enrichment was calculated based on the genes that code for the proteins where the phosphorylation sites were detected using DAVID software. Guava EasyCyte Flow Cytometry was used to determine cell viability after the treatment of the same patient samples with 5 kinase inhibitors (PF-3758309, Midostaurin, silmitasertib, trametinib and TAK715 aiming to target the kinases PAK, Flt-3, Casein Kinase 2, MEK and P38, respectively).

[1] = 15 cases positive for RAS/MEK/ERK activation

Row | SMILES | AML cases whose viability was reduced by >50% relative to DMSO control (1 μM dose, 36 AML cases) | number of AML cases whose viability was reduced by >50% relative to DMSO control (1 μM dose, 36 AML cases) | sensitivity of M4-Like and CDs+ cases versus M1-Like and CDs− cases (cell viability) | effect of FLT3-ITD status on the responses of cells (FIG. 7F and FIG. 14B) | sensitivity of samples positive for either CDs or phosphorylation on GSK3A or PCKδ versus other cases (FIG. 7F and FIG. 14B) | cases positive for RAS/MEK/ERK activation that showed high responses [1] | number of cases positive for RAS/MEK/ERK activation that showed high responses [1] | potency relative to the other compounds tested (1 μM dose, 36 AML cases)
1 | O=C(O)c1ccc2c(c1)nc(Nc1cccc(Cl)c1)c1ccncc12 [CK2i, silmitasertib] | 22% | 8/36 | – | – | – | – | – | –
2 | CO[C@@H]1[C@H](N(C)C(=O)c2ccccc2)C[C@H]2O[C@]1(C)n1c3ccccc3c3c4c(c5c6ccccc6n2c5c31)C(=O)NC4 [FLT3/PKCi, midostaurin] | 25% | 9/36 | more sensitive | did not have an effect | more sensitive | – | – | –
3 | CC(=O)Nc1cccc(-n2c(=O)n(C3CC3)c(=O)c3c(Nc4ccc(I)cc4F)n(C)c(=O)c(C)c32)c1 [MEKi, trametinib] | 22% | 8/36 | – | – | – | ~50% | 7/15 | –
4 | CCc1nc(-c2cccc(C)c2)c(-c2ccnc(NC(=O)c3ccccc3)c2)s1 [P38i, TAK-715] | 8% | 3 AML cases | no differences | – | – | – | – | –
5 | Cc1nc(Nc2[nH]nc3c2CN(C(=O)N[C@H](CN(C)C)c2ccccc2)C3(C)C)c2sccc2n1 [PAKi, PF-3758309] | 50% | 18/36 | more sensitive | – | – | – | – | most potent of all the compounds tested
